Measurements: US9221834B2 (Merck Sharp & Dohme Corp., priority 2010, dated 2015)

Each molecule was assayed against T1, recombinant CETP (rCETP) (Homo sapiens, UniProt P11597) (assay: RTA assay using recombinant CETP (2% RTA)). Conditions: RTA assay in 2% human serum; read-out: IC50.
T1 sequence (P11597 18-493): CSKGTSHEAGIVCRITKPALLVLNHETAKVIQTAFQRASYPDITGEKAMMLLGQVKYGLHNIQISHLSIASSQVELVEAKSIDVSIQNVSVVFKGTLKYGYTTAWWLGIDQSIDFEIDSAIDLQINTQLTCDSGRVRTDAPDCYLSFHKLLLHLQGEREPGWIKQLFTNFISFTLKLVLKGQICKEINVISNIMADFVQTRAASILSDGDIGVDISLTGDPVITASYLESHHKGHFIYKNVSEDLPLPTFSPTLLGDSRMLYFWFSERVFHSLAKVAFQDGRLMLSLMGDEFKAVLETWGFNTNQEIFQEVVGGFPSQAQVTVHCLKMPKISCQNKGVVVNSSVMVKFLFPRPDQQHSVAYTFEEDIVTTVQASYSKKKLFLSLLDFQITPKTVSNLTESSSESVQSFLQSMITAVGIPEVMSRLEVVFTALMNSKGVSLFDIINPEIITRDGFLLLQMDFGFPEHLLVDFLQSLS
Assay type: biochemical
Method: In Vitro Radioactive Assays of CETP-Catalyzed CE and TG Transfer (RTA Assay)
Reagents and sources are: [3H] cholesteryl oleate (GE #TRK.886), [3H]
Both assays measure the transfer of [3H] cholesteryl oleate or [3H]triolein from exogenous LDL to HDL.
After a brief vortex, the solution is sonicated until clear and mixed with 20 mL of fresh human serum. The mixture is incubated overnight at 37° C. […] Once isolated the particles are dialyzed 3× in CETP buffer (50 mM Tris, pH 7.4, 100 mM NaCl, 1 mM EDTA). Human HDL is purchased from Intracel and used as the acceptor particles.
Transfer assays are performed in a 96-well v-bottom polypropylene plate. […] 1 μL of each test compound diluted in DMSO is added to 47 μL of assay cocktail per well and incubated at 37° C. for 1 hour. To initiate the transfer reaction, 2 μL radiolabeled LDL is added. After an additional 60 min of incubation at 37° C., the transfer action is terminated by precipitation of LDL with an equal volume of 20% W/V PEG 8000. The plates are centrifuged at 2000 rpm for 30 minutes at 4° C. A 40 μL aliquot of the HDL-containing supernatant is transferred to a Packard Optiplate with 200 μL of MicroScint 20. After mixing, plates are counted by liquid scintillation. Counts present in the supernatant for blanks (wells containing only HDL acceptor, CETP buffer and DMSO) are subtracted from those containing test compounds and used to correct for non-specific transfer.
Comparison of the counts of samples with inhibitors to an uninhibited (DMSO only) positive control yield a percent inhibition. A plot of percent inhibition vs. log of inhibitor concentration, fit to a Sigmoidal 4 parameter equation is used to calculate IC50.

`COc1ccc([C@@H]2C[C@H]2C(=O)O)cc1-c1ccc(N2CCC2)nc1CN1C(=O)O[C@H](c2cc(F)cc(F)c2)[C@@H]1C` [Example 83] and `CCOC(=O)[C@H]1C[C@@H]1c1ccc(OC)c(-c2ccc(N3CCC3)nc2CN2C(=O)O[C@H](c3cc(F)cc(F)c3)[C@@H]2C)c1` [Example 17] are within 1.5-fold of each other in IC50: 134 nM for the first, 181 nM for the second.

Going from `COc1ccc([C@H]2CC[C@H](C(=O)OC)CC2)cc1-c1ccc(N2CCC2)nc1CN1C(=O)O[C@H](c2cc(C(F)(F)F)cc(C(F)(F)F)c2)[C@@H]1C` [Example 9] to `COc1ccc([C@@H]2CC[C@@H](C(=O)O)C2)cc1-c1ccc(N2CCC2)nc1CN1C(=O)O[C@H](c2cc(C(F)(F)F)cc(C(F)(F)F)c2)[C@@H]1C` (single isomer, unassigned) [Example 238], the IC50 falls from 15 nM to 5 nM (3-fold). The second is the more potent here.

Compared with `COc1ccc([C@H]2CC[C@H](C(=O)O)CC2)cc1-c1ccc(N2CC(F)(F)C2)nc1CN1C(=O)O[C@H](c2cccc(OC(F)(F)F)c2)[C@@H]1C` [Example 294], `COc1ccc(CCC(=O)O)cc1-c1ccc(N2CC(F)(F)C2)nc1CN1C(=O)O[C@H](c2cccc(OC(F)(F)F)c2)[C@@H]1C` [Example 297] is 3.7-fold higher in IC50: 102 nM for the first, 375 nM for the second.

Compared with `CCOC(=O)C[C@@H]1CCc2cc(OC)c(-c3cnc(N4CC(F)(F)C4)nc3CN3C(=O)O[C@H](c4cc(C(F)(F)F)cc(C(F)(F)F)c4)[C@@H]3C)cc21` [Example 130], `COc1ccc(CCC(=O)O)cc1-c1cnc(N2CC(OC)C2)nc1CN1C(=O)O[C@H](c2cc(C(F)(F)F)cc(C(F)(F)F)c2)[C@@H]1C` [Example 176] is 13-fold higher in IC50: 32 nM for the first, 415 nM for the second. The first is the more potent here.

Compared with `COc1ccc([C@H]2CC[C@H](C#N)CC2)cc1-c1ccc(N2CCC2)nc1CN1C(=O)O[C@H](c2cc(C)cc(C)c2)[C@@H]1C` [Example 255], `CCOC(=O)CCc1ccc(OC)c(-c2ccc(N3CCC3)nc2CN2C(=O)O[C@H](c3cc(C)cc(C)c3)[C@@H]2C)c1` [Example 198] is 7.9-fold lower in IC50: 395 nM for the first, 50 nM for the second. The second is the more potent here.

`COc1ccc([C@@H]2C[C@H]2C(=O)O)cc1-c1c(C)cc(N2CCC2)nc1CN1C(=O)O[C@H](c2cc(C(F)(F)F)cc(C(F)(F)F)c2)[C@@H]1C` [Example 68] and `COc1ccc([C@H]2C[C@H](C(=O)O)C2)cc1-c1c(C)cc(N2CCC2)nc1CN1C(=O)O[C@H](c2cc(C(F)(F)F)cc(C(F)(F)F)c2)[C@@H]1C` [Example 97] are the same in IC50: 4 nM for the first, 4 nM for the second.

Compared with `COc1ccc(CC(N)=O)cc1-c1ccc(N2CCC2)nc1CN1C(=O)O[C@H](c2cc(C(F)(F)F)cc(C(F)(F)F)c2)[C@@H]1C` [Example 254, 2-{3-[6-azetidin-1-yl-2-({(4S,5R)-5-[3,5-bis(trifluoromethyl)phenyl]-4-methyl-2-oxo-1,3-oxazolidin-3-yl}methyl)pyridin-3-yl]-4-methoxyphenyl}acetamide], `COc1ccc(Cc2nn[nH]n2)cc1-c1ccc(N2CCC2)nc1CN1C(=O)O[C@H](c2cc(C(F)(F)F)cc(C(F)(F)F)c2)[C@@H]1C` [Example 266, (4S,5R)-3-({6-azetidin-1-yl-3-[2-methoxy-5-(2H-tetrazol-5-ylmethyl)phenyl]pyridin-2-yl}methyl)-5-[3,5-bis(trifluoromethyl)phenyl]-4-methyl-1,3-oxazolidin-2-one] is 5.3-fold higher in IC50: 15 nM for the first, 79 nM for the second. The first is the more potent here.

`COC(=O)c1ccc(-c2ccc(OC)c(-c3ccc(N4CCC4)nc3CN3C(=O)O[C@H](c4cc(C(F)(F)F)cc(C(F)(F)F)c4)[C@@H]3C)c2)o1` [Example 47, Methyl 5-{3-[6-azetidin-1-yl-2-({(4S,5R)-5-[3,5-bis(trifluoromethyl)phenyl]-4-methyl-2-oxo-1,3-oxazolidin-3-yl}methyl)pyridin-3-yl]-4-methoxyphenyl}-2-furoate] and `COC(=O)c1ccc(-c2ccc(OC)c(-c3ccc(N4CCC4)nc3CN3C(=O)O[C@H](c4cc(C(F)(F)F)cc(C(F)(F)F)c4)[C@@H]3C)c2)cn1` [Example 58] are within 1.5-fold of each other in IC50: 34 nM for the first, 29 nM for the second.

First: COC(=O)C[C@H]1C[C@@H](c2ccc(OC)c(-c3ccc(N4CCC4)nc3CN3C(=O)O[C@H](c4cc(C(F)(F)F)cc(C(F)(F)F)c4)[C@@H]3C)c2)C1 [Example 25]
Second: COC(=O)C[C@H]1C[C@H](c2ccc(OC)c(-c3ccc(N4CCC4)nc3CN3C(=O)O[C@H](c4cc(C(F)(F)F)cc(C(F)(F)F)c4)[C@@H]3C)c2)C1 [Example 26]
The IC50 of the first is 2-fold higher: 14 nM for the first, 7 nM for the second.

First: COc1ccc(C2C[C@H]2C(=O)O)cc1-c1cnc(N2CCC2)nc1CN1C(=O)O[C@H](c2cccc(C(F)(F)F)c2)[C@@H]1C (stereo partly shown) [Example 274]
Second: COc1ccc([C@H]2CC[C@H](C(=O)O)CC2)cc1-c1cnc(N2CCC2)nc1CN1C(=O)O[C@H](c2cccc(C(F)(F)F)c2)[C@@H]1C [Example 272]
The IC50 of the first is 9.8-fold higher: 1620 nM for the first, 165 nM for the second.

Compared with `C[C@H]1[C@@H](c2cc(C(F)(F)F)cc(C(F)(F)F)c2)OC(=O)N1Cc1nc(N2CCC2)ncc1-c1cc(CCC(=O)O)ccc1Cl` [Example 280], `COc1ccc(CCC(=O)O)cc1-c1cnc(N2CCC2)nc1CN1C(=O)O[C@H](c2cc(C(F)(F)F)cc(C(F)(F)F)c2)[C@@H]1C` [Example 171] is 2.6-fold higher in IC50: 23 nM for the first, 60 nM for the second.

`COc1ccc(-c2ncc(C(=O)O)n2C)cc1-c1ccc(N2CCC2)nc1CN1C(=O)O[C@H](c2cc(C(F)(F)F)cc(C(F)(F)F)c2)[C@@H]1C` [Example 117] and `COc1ccc(-c2ccc(C(=O)O)cn2)cc1-c1ccc(N2CCC2)nc1CN1C(=O)O[C@H](c2cc(C(F)(F)F)cc(C(F)(F)F)c2)[C@@H]1C` [Example 121] are within 1.5-fold of each other in IC50: 25 nM for the first, 28 nM for the second.

First: COc1ccc(CCC(=O)O)cc1-c1c(C)cc(N2CC(F)(F)C2)nc1CN1C(=O)O[C@H](c2cc(C(F)(F)F)cc(C(F)(F)F)c2)[C@@H]1C [Example 63]
Second: COC(=O)Cc1ccc(OC)c(-c2c(C)cc(N3CCC3)nc2CN2C(=O)O[C@H](c3cc(C(F)(F)F)cc(C(F)(F)F)c3)[C@@H]2C)c1 [Example 40]
The IC50 of the first is 1.7-fold higher: 5 nM for the first, 3 nM for the second.

Compared with `COC(=O)c1ccc(-c2cc(-c3cnc(N4CC(OC)C4)nc3CN3C(=O)O[C@H](c4cc(C(F)(F)F)cc(C(F)(F)F)c4)[C@@H]3C)c(OC)cc2F)c(C)c1` [Example 136], `COC(=O)c1ccc(-c2cc(-c3ccc(N4CCC4)nc3CN3C(=O)O[C@H](c4cc(F)c(F)c(F)c4)[C@@H]3C)c(OC)cc2F)c(C)c1` [Example 36] is 2.1-fold lower in IC50: 55 nM for the first, 26 nM for the second. The second is the more potent here.

Going from `COc1ccc([C@H]2CC[C@H](C(=O)OC)CC2)cc1-c1ccc(N2CCC2)nc1CN1C(=O)O[C@H](c2cccc(C(F)(F)F)c2)[C@@H]1C` [Example 194] to `CCOC(=O)CCc1ccc(OC)c(-c2ccc(N3CCC3)nc2CN2C(=O)O[C@H](c3cccc(C(F)(F)F)c3)[C@@H]2C)c1` [Example 197], the IC50 falls from 145 nM to 59 nM (2.5-fold). The second is the more potent here.

Going from `CCOC(=O)[C@@H]1C[C@H]1c1ccc(CC)c(-c2ccc(N3CCC3)nc2CN2C(=O)O[C@H](c3cc(C(F)(F)F)cc(C(F)(F)F)c3)[C@@H]2C)c1` [Example 22] to `CCOC(=O)c1cc(C)c(-c2ccc(OC)c(-c3ccc(N4CCC4)nc3CN3C(=O)O[C@H](c4cc(C(F)(F)F)cc(C(F)(F)F)c4)[C@@H]3C)c2)n1C` [Example 56], the IC50 falls from 11 nM to 5 nM (2.2-fold). The second is the more potent here.

Compared with `COc1ccc(-c2ccc(C(=O)O)cc2C)cc1-c1ccc(N2CCC2)nc1CN1C(=O)O[C@H](c2cccc(C(F)(F)F)c2)[C@@H]1C` [Example 235], `COc1ccc(-c2ccc(C(=O)O)cc2C)cc1-c1ccc(N2CCC2)nc1CN1C(=O)O[C@H](c2cccc(C)c2)[C@@H]1C` [Example 237] is 1.7-fold higher in IC50: 6 nM for the first, 10 nM for the second. The first is the more potent here.

`COC(=O)CC(C)(C)c1ccc(OC)c(-c2ccc(N3CCC3)nc2CN2C(=O)O[C@H](c3ccc(F)c(F)c3)[C@@H]2C)c1` [Example 12] and `COc1ccc(C(C)(C)CC(=O)O)cc1-c1ccc(N2CCC2)nc1CN1C(=O)O[C@H](c2cccc(C(F)(F)F)c2)[C@@H]1C` [Example 220] are within 1.5-fold of each other in IC50: 227 nM for the first, 330 nM for the second.

First: CCOC(=O)C[C@@H]1CCc2cc(OC)c(-c3ccc(N4CCC4)nc3CN3C(=O)O[C@H](c4cccc(C)c4)[C@@H]3C)cc21 [Example 206]
Second: COC(=O)c1ccc(-c2cc(-c3ccc(N4CCC4)nc3CN3C(=O)O[C@H](c4cc(F)cc(F)c4)[C@@H]3C)c(OC)cc2F)c(C)c1 [Example 21]
The IC50 of the first is 9.2-fold higher: 203 nM for the first, 22 nM for the second.

Compared with `COc1ccc(-c2ccc(C(=O)O)cc2C)cc1-c1ccc(N2CCC2)nc1CN1C(=O)O[C@H](c2cc(C(F)(F)F)cc(C(F)(F)F)c2)[C@@H]1C` [Example 289], `C[C@H]1[C@@H](c2cc(C(F)(F)F)cc(C(F)(F)F)c2)OC(=O)N1Cc1nc(N2CC(F)(F)C2)ncc1-c1cc([C@H]2CC[C@H](C(=O)O)CC2)ccc1Cl` [Example 177] is 2.7-fold higher in IC50: 7 nM for the first, 19 nM for the second.
